# Calls of active or inactive are those of the source.
# Assays:
# [1] = target: T1, Heat shock factor protein 1 (Mus musculus, UniProt P38532); test: HSF1 potentiators in luciferase reporter cells, confirmation, cell-based, NIH3T3, luminescence, dose retest (AID 435004); format: functional;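 also: stress induced by proteasome inhibitor MG132 added 30 min after compound; luciferase reporter driven by HSF1 response element in NIH3T3 cells; actives raise luminescence as potentiators of the MG132 stress response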
# T1 sequence (P38532 whole entry): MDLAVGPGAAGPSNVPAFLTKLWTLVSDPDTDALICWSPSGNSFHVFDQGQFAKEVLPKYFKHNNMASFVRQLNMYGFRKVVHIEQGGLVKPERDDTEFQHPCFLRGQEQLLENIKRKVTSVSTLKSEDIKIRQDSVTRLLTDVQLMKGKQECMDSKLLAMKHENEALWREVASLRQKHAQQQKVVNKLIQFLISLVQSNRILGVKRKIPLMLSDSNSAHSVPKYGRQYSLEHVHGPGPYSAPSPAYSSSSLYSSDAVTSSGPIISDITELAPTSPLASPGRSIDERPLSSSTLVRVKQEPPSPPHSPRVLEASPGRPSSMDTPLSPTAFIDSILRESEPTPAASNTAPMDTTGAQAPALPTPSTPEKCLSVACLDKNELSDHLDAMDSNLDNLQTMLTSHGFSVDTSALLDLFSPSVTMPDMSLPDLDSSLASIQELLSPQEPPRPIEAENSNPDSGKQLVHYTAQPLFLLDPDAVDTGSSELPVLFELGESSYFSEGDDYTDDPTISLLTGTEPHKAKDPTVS
# [2] = target: Cytochrome P450 2C19 (Homo sapiens, UniProt P33261); test: Cytochrome panel assay with activity outcomes. Panel member name: p450-cyp2c19 Compounds with AC50 equal or less than 10 uM are considered active; format: functional; settings: read-out: AC50
# [3] = target: T2, Cytochrome P450 1A2 (Homo sapiens, UniProt P05177);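 also: PubChem cytochrome P450 panel assay, CYP1A2 panel member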
# T2 sequence (P05177 whole entry): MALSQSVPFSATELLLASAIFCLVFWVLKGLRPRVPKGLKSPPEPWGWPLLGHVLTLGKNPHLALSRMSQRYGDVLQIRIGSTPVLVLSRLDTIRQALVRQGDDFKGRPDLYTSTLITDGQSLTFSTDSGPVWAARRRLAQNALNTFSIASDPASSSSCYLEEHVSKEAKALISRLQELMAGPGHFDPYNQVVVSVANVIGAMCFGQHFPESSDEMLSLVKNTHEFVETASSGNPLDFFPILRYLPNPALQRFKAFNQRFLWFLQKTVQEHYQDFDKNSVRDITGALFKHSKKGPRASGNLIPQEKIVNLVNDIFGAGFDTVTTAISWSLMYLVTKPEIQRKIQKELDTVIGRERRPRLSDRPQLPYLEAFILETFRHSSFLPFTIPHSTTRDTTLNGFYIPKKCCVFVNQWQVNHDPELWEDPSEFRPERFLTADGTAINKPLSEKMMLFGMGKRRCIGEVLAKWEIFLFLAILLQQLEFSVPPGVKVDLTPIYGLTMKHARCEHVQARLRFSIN
# [4] = target: Cytochrome P450 2C9 (Homo sapiens, UniProt P11712)
# [5] = target: Cytochrome P450 3A4 (Homo sapiens, UniProt P08684);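 also: CYP3A4 tested as one member of a cytochrome P450 panel screen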
# [6] = target: T3, Corticotropin-releasing factor receptor 2/Corticotropin-releasing factor-binding protein (Homo sapiens, UniProt P24387+Q13324); test: Dose Response confirmation of uHTS hits for small molecule antagonists of the CRF-binding protein and CRF-R2 receptor complex.; format: functional; settings: read-out: IC50_Mean
# T3 sequence (Q13324 whole entry): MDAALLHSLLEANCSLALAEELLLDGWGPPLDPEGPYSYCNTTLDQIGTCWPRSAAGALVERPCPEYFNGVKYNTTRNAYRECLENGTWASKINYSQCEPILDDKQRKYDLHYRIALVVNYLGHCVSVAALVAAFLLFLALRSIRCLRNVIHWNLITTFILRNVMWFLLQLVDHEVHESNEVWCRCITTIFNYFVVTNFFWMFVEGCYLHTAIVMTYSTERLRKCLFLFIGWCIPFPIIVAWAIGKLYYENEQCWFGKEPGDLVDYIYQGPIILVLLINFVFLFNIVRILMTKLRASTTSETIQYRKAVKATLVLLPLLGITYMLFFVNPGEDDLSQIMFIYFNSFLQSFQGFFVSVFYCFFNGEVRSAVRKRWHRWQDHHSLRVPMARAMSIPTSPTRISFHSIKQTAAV
# T3 sequence (P24387 whole entry): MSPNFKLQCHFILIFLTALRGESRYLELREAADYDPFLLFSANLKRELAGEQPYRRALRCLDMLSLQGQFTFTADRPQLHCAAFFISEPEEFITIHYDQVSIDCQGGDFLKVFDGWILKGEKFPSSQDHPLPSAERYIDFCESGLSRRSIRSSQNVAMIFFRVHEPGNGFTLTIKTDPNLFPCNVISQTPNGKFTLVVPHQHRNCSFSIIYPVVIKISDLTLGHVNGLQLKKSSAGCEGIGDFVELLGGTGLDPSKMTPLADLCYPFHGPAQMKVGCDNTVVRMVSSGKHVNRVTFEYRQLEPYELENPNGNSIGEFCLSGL
# [7] = target: T3, Corticotropin-releasing factor receptor 2/Corticotropin-releasing factor-binding protein; test: activators of CRF receptor 2 with binding protein – uHTS hits, confirmation (AID 602473); format: functional; settings: read-out: EC50_Mean
# [8] = inhibitors of intracellular T. cruzi replication, confirmation, NIH3T3 host cells, beta-gal luminescence (AID 2044); format: functional, cell-based;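 also: intracellular parasites grown in NIH/3T3 mouse fibroblasts as host cells; luminescent beta-galactosidase reporter signal from transgenic T. cruzi replicating inside host cells; inhibitors lower the luminescence signal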
# [9] = cytotoxicity toward NIH3T3 fibroblasts, dose response, counter-screen, cell-based, ATP luminescence, mouse fibroblasts (AID 2010); format: functional;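 also: cells exposed to compound for about 90 hours before reading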
# [10] = Luminescence Cell-Based Dose Retest to Confirm Inhibitors of Cancer Stem Cells. [Related pubchem assays (depositor defined):AID2717, AID2721]; format: functional; settings: Homo sapiens
# [11] = tested on: H4; test: Luminescence Cell-Based Dose Response HTS to Identify Activators of 5'UTR Stem-Loop Driven Prion Protein mRNA Translation in H4 Neuroglioblastoma Cells. [Related pubchem assays: 1829 (Project Summary), 1814 (Primary HTS)]; format: functional; settings: Homo sapiens
# [12] = tested on: INS1; test: beta cell apoptosis inhibitors, cytokine rescue, dose response, luminescence, retest (AID 449756); format: functional, cell-based; settings: Rattus norvegicus;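 also: cell death triggered by IL-1 beta plus TNF-alpha plus IFN-gamma mixture; protective hits raise ATP signal compared with cytokine alone wells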
# Chain of Cytochrome P450 2C19 (P33261 whole entry): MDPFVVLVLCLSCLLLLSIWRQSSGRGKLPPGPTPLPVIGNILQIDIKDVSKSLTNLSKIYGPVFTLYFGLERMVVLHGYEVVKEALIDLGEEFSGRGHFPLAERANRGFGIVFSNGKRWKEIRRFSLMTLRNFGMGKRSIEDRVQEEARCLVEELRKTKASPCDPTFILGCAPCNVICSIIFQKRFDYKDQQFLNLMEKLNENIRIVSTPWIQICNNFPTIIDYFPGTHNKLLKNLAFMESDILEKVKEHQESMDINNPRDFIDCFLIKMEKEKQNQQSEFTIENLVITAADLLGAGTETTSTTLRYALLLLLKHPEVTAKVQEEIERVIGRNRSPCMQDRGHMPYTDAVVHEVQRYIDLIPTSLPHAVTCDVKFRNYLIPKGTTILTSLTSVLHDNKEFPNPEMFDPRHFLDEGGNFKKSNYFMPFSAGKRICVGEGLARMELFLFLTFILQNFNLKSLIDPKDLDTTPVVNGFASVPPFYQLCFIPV
# Chain of Cytochrome P450 3A4 (P08684 whole entry): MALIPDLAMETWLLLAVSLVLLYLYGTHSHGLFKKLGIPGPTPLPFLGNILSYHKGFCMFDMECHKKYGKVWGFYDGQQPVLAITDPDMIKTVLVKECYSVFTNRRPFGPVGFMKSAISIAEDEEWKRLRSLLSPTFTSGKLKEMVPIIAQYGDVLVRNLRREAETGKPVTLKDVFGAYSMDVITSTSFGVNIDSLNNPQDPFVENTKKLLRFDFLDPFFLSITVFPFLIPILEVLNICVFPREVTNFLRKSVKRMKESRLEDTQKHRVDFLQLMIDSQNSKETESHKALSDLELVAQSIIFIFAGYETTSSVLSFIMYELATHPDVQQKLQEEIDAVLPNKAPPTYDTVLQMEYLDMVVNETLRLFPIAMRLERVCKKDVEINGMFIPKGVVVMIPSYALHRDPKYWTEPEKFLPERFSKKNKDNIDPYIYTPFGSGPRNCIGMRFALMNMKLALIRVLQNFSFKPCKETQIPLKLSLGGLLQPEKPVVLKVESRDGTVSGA
# Chain of Cytochrome P450 2C9 (P11712 whole entry): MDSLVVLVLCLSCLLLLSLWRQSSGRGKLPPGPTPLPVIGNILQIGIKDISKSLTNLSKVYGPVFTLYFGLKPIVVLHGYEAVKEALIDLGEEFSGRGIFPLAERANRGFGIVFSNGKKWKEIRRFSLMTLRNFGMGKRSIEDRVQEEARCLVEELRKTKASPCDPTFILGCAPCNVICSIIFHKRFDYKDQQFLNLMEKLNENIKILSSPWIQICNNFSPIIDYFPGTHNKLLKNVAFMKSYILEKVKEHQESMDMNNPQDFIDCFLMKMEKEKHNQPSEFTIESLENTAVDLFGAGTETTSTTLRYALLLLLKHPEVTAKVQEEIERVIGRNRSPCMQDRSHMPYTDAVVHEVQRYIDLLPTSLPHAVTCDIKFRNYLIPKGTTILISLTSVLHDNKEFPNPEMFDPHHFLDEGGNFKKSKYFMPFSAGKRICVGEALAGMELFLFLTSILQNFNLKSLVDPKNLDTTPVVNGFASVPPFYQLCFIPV
compound,measurement,setting,value
COCCOC(=O)C1=C(C)N=C(C)/C(=C(/O)OCCOC)C1/C=C/c1ccccc1OC (stereo unspecified),EC50,[1],45.7 µM (active)
COc1ccccc1CC(=O)O/N=C(\N)c1cccc([N+](=O)[O-])c1,AC50,[2],20 µM (inconclusive)
same,AC50,[3],25.1 µM (inconclusive)
same,AC50,[4],22.4 µM (inconclusive)
same,AC50,[5],31.6 µM (inconclusive)
COc1ccc(-n2ncc(C(C)NS(=O)(=O)c3cc(C)sc3C)c2C)cc1 (stereo unspecified),IC50,[6],> 47.1 µM (inactive)
same,EC50,[7],> 53 µM (inactive)
COc1ccccc1NC(=O)Nc1nnc(-c2ccco2)s1,AC50,[5],17.8 µM (inconclusive)
O=[N+]([O-])c1nn(-c2ccc3c(c2)OCCO3)[n+]([O-])c1NCCC1=CCCCC1,EC50,[8],0.574 µM (active)
same,EC50,[9],> 60 µM (not active)
same,AC50,[10],52.2 µM (active)
same,EC50,[11],77.1 µM (active)
CCc1ccc(-c2cc(C(F)(F)F)n3nc(C(=O)Nc4cnn(Cc5ccccc5C)c4)cc3n2)s1,AC50,[5],3.16 µM (inconclusive)
Cc1ccc(N2C(=O)c3sc4nnc(C)c(=O)n4c3C2=O)cc1,IC50,[6],> 47.1 µM (inactive)
same,EC50,[7],> 53 µM (inactive)
CCC1CCC2(CC1)SCC(=O)N2c1ccccc1 (stereo unspecified),EC50,[1],> 260 µM (inactive)
Cc1nnc(NC(=O)c2oc3c(ccc4ccccc43)c2C)s1,AC50,[4],17.8 µM (inconclusive)
same,AC50,[5],12.6 µM (inconclusive)
Cc1ccc(OCCOC(=O)Cn2nc(C)c([N+](=O)[O-])c2C)cc1,IC50,[6],> 47.1 µM (inactive)
same,EC50,[7],> 53 µM (inactive)
Cc1c(/N=C2\SCC(=O)N2/N=C\c2ccc(Br)cc2)c(=O)n(-c2ccccc2)n1C,EC50,[1],> 260 µM (inactive)
COc1ccc(Cl)cc1NC(=O)CCc1nc(-c2ccccc2F)no1,EC50,[1],> 260 µM (inactive)
COc1ccc(NC(=O)Nc2ccc3c(c2)OCO3)c(C)c1,IC50,[6],> 47.1 µM (inactive)
same,EC50,[7],> 53 µM (inactive)
CCn1c(SC)nnc1C1CCCN(CC(=O)Nc2ccccc2N2CCOCC2)C1 (stereo unspecified),EC50,[1],> 260 µM (inactive)
O=C([O-])c1cc(-c2ccccc2)cc(-c2ccccc2)[n+]1Cc1ccccc1,AC50,[12],1.96 µM (active)
O=C(CCCN1CCC2(CC1)C(=O)N(Cc1cccc(F)c1)CN2c1ccccc1)c1ccc(F)cc1,AC50,[2],7.94 µM (inconclusive)
same,AC50,[3],39.8 µM (inconclusive)
same,AC50,[5],31.6 µM (inconclusive)
O=C(O)CCn1[nH]c(=O)ccc1=O,EC50,[1],> 260 µM (inactive)
CCN(CCCNC(=O)COc1cc(=O)n(C)c2ccccc12)c1cccc(C)c1,EC50,[1],> 260 µM (inactive)
COc1ccc(C2Nc3ccccc3C(=O)N2NS(=O)(=O)c2ccc(C)cc2)cc1 (stereo unspecified),EC50,[1],> 260 µM (inactive)
Cc1cccc(C)c1OCC(=O)Nc1oc(-c2ccccc2)c(-c2ccccc2)c1C#N,IC50,[6],> 47.1 µM (inactive)
same,EC50,[7],> 53 µM (inactive)
COCCn1c(=O)c(-c2ccc(Cl)cc2)nc2cnc(Oc3ccccc3)nc21,AC50,[2],39.8 µM (inconclusive)
same,AC50,[5],25.1 µM (inconclusive)

# Source: ChEMBL document CHEMBL1201862, “PubChem BioAssay data set” (2004)
